Data as given in patent US5462936A, “Benzothiazepine derivatives” (Shionogi & Co., Ltd., priority 1991, dated 1995).

Experiments:
[1] = system: cardiac muscle damage due to ischemia; assay: Anti-necrosis activity (left coronary ligation and reperfusion, CPK retention in left ventricle); assay type: in vivo, rat (Wistar); conditions: Rattus norvegicus; for inhibition in vivo at 0.3 mg/kg: 0.3 mg/kg iv
Procedure: Male Sic Wistar rats weighing 200-250 g were anesthetized with urethane (1 g/kg), and ramus descendens of the left coronaria was ligated for 20 minutes and then reperfused according to the method described by Hock et al (Hock, […]., Am. Heart J., 109 222, 1985). […] For three hours after the reperfusion, the rats were subjected to heat insulation on a warming mat. After 120 minutes, the hearts were extracted, and the free walls of the left ventricles were frozen and storred until determination of CPK activity. CPK activity was determined according to the method of Bernauer, W. (Arch. int. Pharmacodyn., 231 90, 1978) after minor modification. Thus, the extracted tissue was homogenized in 10 volumes of 0.1M Tris/HCl (pH 7.5) containing 1 mM mercaptoethanol and centrifuged at 20,000 g for 20 minutes. The supernatant was used for determination of CPK activity, which was conducted using a commercially available kit (CPK-Test, Wako). CPK was determined using serum CPK as a standard and expressed with "U/mg protein". […] The degree of the inhibition was measured in terms of the CPK activity retained in the left ventricle. The test results are shown in Table 7, wherein percentage of the retention (%) at each dose was calculated based on the following equation.

cultured cardiac cells = assay: Anti-hypoxia action on cultured cardiac cells (inhibition of CPK leakage); assay type: cell-based, rat (newborn Crj-SD); conditions: Rattus norvegicus, read-out: Anti-hypoxia Activity (%), rate of inhibition on CPK leakage
Procedure: Anti-hypoxia action of the compounds of the present invention were investigated through studying their action in connection with the protection of cardiomuscular cells.
Primary culture of cardiac cells was prepared from newborn Crj-SD rats (2-3 day old) and used in the experiment. The primary culture was prepared according to the method described by Jones R. L. et al., Am. J. Pathol., 135, 541-556, 1989. Thus, cardiac cells were isolated from ventricle muscle using collagenase and pancreatin, and then the cardiac cells were separated and purified from cell debris, erythrocytes, and fibroblasts by means of Percoll density-gradient centrifugation. The cells were spread on a culture plate at a ratio of 2-3×10^5 cells/3.5 cm plate, and the cells were cultured for two days in Dulbecco's Modified Eagle's Medium (DMEM) containing 10% Fetal Bovine Serum (FBS) in an incubator (5% CO2 /95% Air) kept at 37° C. After sufficient growth of the cardiac cells, the culture medium was changed to DMEM free from FBS, and the culture was continued additional one day. The cells thus obtained were used in the experiment.
Hypoxia was generated using Gas Pak™ Anaerobic Chamber (BBL) which produces hypoxia by capturing residual O2 and changing it into H2 0 by the action of a H2 /CO2 generating bag and catalyst. The cardiac cell plate, wherein the culture medium had been changed to DMEM which is free from FBS and glucose, was set in the chamber, and the chamber was placed in an incubator. Anti-hypoxia activity of test compounds was determined by measuring inhibition rate of leakage of creatine phosphokinase activity into the culture medium.
The compounds tested were all dissolved in DMSO using HCO-50 as a solubilizing agent (DMSO:HCO-50=9:1), and directly charged onto the culture plate. The final concentrations of DMSO and HCO-50 in the culture medium were adjusted to 0.09% and 0.01% respectively. CPK activity was measured by colorimetry (Wako Kit) modified from Oliver method.
The numerical values in the table show cardiac cells-protecting activity of test compounds in terms of the rate (%) of inhibition on CPK leakage determined in connection with the test compounds when the amount of the CPK leakage for negative control (no addition of the test compounds) was defined as 100%.

Calcium Channel = Calcium Channel (Oryctolagus cuniculus, UniProt P15381); assay: Calcium channel antagonism: relaxing action on extracted blood vessel (rabbit femoral artery, contracture by 50 mM KCl); conditions: 50 mM KCl contracture, 50% of maximum relaxing (0.1 mM papaverine)
Procedure: Calcium Channel Antagonism and […] Action (Relaxing Action on Extracted Blood Vessel)
Male rabbits weighing 2-3 kg (Rabiton, Japanese albino species) were anesthetized through intravenous administration of pentobarbital (50 mg/kg), and sacrificed by bloodletting through dissection of axillary artery. Femoral artery was extracted, connective tissue surrounding the artery was removed, and helical specimen was prepared. The specimen was suspended in an organ bath (20 cc) filled with 37° C. Krebs-Henseleit nutritious solution and bubbled with a 95% O2 +5% CO2 mixed gas. 1.5 g of resting tension was loaded on femoral artery. Isometric change of the tension of the specimen was recorded on a thermal recorder (Nippon Koden WT-685G) via F-D pickup Nippon Koden (TB611T) and Preamp (Nippon Koden). Ca-antagonism of a test compound was evaluated by observing relaxing action due to accumulative addition of the compound on the contracture caused by the application of 50 mM KCl. α-Blocking action was similarly evaluated by observing such relaxing action on the contracture caused by the application of 1 μM norepinephrine (NE). […] The concentration of a given compound, which is necessary for giving 50% of the maximum relaxing (IC50), was determined using the above system.

[2] = system: spontaneous hypertensive rats (SHR); assay: Action on blood pressure and heart rate of not-anesthetized SHR; assay type: in vivo, rat (SHR); conditions: 30 mg/kg PO, 2 and 4 hours after administration; for Antihypertensive action (%): decrease in SBP
Procedure: Action of the compounds of the invention on blood pressure and heart rate of not-anesthetized spontaneous hypertensive rats (SHR)
Male Japanese Charles-River SHR (13-17 week old) were used in the experiment (S. Matsuda, J. Pharmacol. Method, 17 361, 1987). Systolic blood pressure (SBP) and heart rate of the animals were measured non-invasively (indirectly) using hemadynamometer for caudal artery pressure (6 channel type) before the administration of test compounds, at 2 and 4 hours after administration. Test compounds were dissolved in DMSO (100%) and orally administered. Decreased values in SBP and heart rate determined 2 and 4 hours after administration when compared with those determined before administration are shown in percentage (%) in the following table.

Calcium Channel, sequence (P15381 whole entry): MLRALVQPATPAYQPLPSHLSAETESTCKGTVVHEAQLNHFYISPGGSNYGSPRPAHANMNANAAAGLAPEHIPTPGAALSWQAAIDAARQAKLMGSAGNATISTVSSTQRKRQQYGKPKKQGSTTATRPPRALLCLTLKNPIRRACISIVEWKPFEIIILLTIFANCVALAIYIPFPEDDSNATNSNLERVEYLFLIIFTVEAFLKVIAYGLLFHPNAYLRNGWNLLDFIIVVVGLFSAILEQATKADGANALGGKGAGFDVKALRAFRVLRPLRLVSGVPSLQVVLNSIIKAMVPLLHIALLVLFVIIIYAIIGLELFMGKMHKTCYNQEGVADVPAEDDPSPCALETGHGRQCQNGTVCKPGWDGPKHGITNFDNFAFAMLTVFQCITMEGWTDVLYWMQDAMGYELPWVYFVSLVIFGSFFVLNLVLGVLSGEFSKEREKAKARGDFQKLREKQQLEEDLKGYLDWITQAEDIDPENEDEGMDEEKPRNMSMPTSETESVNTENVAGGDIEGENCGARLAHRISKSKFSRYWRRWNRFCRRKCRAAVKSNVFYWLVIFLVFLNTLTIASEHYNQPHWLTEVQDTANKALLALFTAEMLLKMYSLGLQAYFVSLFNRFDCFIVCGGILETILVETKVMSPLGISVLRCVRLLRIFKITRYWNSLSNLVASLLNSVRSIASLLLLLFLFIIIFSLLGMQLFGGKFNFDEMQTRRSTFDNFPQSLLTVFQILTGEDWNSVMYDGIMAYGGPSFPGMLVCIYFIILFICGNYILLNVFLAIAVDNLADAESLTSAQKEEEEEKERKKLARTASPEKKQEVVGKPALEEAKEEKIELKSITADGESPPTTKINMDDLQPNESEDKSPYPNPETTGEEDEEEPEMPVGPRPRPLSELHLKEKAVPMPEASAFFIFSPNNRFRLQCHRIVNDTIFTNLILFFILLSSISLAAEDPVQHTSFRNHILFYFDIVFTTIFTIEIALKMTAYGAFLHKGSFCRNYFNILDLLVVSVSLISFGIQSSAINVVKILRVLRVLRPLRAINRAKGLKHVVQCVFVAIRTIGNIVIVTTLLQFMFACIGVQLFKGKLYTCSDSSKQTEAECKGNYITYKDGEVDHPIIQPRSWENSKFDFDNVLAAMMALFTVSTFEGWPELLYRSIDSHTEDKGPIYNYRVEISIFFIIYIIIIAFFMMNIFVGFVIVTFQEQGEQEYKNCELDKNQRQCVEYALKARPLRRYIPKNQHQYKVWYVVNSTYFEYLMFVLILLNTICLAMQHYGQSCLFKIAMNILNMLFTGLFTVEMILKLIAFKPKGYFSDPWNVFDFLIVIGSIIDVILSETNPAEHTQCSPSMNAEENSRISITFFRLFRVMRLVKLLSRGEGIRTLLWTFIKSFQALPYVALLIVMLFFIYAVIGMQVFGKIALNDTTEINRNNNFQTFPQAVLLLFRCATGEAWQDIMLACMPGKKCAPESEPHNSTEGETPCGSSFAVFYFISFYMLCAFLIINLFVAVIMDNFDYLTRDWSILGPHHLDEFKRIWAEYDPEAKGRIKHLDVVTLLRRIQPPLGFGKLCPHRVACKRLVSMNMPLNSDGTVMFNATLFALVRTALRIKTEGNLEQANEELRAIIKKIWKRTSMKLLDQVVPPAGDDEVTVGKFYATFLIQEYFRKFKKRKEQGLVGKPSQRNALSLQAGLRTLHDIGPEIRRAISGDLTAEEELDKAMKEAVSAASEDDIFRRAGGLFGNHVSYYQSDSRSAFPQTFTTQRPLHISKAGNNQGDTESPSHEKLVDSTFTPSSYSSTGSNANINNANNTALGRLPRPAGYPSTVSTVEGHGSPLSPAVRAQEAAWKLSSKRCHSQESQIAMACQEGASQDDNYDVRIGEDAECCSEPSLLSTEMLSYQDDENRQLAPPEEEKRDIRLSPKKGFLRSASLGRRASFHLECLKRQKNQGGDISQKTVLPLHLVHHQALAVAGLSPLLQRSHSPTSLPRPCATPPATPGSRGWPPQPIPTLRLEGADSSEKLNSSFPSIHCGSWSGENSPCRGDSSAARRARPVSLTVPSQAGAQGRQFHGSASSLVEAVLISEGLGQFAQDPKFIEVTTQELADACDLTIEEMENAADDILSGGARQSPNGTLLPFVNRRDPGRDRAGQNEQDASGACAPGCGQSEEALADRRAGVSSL
Calcium Channel, sequence (P13806 27-960 partner limits assumed): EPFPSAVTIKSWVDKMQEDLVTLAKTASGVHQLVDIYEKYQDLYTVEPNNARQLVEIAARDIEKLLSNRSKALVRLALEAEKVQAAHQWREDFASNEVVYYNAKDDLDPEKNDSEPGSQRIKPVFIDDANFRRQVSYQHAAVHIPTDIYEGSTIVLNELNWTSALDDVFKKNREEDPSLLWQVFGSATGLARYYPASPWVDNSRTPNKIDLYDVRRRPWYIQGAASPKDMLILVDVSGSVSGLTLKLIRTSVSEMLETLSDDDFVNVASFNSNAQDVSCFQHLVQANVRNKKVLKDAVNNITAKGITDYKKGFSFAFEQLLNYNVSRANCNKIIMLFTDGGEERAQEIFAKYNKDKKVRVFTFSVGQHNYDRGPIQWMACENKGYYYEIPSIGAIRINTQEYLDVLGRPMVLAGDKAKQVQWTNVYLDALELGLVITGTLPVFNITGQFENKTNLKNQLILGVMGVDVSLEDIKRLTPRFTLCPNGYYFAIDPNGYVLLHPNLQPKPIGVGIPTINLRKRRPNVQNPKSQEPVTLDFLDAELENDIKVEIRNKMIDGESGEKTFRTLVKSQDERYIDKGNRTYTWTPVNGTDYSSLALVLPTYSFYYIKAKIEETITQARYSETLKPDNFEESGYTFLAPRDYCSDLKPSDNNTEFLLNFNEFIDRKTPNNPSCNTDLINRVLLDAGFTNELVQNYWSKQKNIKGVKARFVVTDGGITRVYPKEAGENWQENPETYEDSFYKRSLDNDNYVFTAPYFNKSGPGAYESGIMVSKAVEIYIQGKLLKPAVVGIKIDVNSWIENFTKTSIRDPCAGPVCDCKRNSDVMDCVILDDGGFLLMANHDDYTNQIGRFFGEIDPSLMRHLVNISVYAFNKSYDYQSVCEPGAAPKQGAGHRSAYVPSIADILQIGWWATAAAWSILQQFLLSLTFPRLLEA
Calcium Channel, sequence (P13806 961-1106 partner limits assumed): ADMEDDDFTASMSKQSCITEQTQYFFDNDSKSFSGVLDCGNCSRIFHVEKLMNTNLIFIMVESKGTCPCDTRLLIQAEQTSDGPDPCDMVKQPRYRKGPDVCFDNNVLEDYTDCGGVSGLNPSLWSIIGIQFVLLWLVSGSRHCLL

Question: For `COc1ccc([C@@H]2Sc3cc(Cl)ccc3N(CCCN3CCN(c4ccc(F)cc4)CC3)C(=O)[C@@H]2OC(C)=O)cc1` (relative stereo) [Compound I-12, 3-Acetoxy-5-[3-(4-(4-fluorophenyl)-piperazinyl)propyl]-2,3-dihydro-2-(4-methoxyphenyl)-8-chloro-1,5-benzothiazepin-4(5H)-one], which inhibition in vivo at 1 mg/kg ([1]; 1 mg/kg iv) is on record?
Answer: Its inhibition in vivo at 1 mg/kg is 23%.

Question: And the inhibition at 1 µM (cultured cardiac cells)?
Answer: The inhibition at 1 µM was 10%.

Question: What about the inhibition at 10 µM (cultured cardiac cells) of the same molecule?
Answer: The inhibition at 10 µM was 87%.

Question: Which results are given for `COc1ccc([C@@H]2Sc3cc(Cl)ccc3N(CCCN3CCN(C(c4ccc(Cl)cc4)c4ccc(Cl)cc4)CC3)C(=O)[C@@H]2OC(C)=O)cc1` [Compound I-24, (2S-cis)-3-Acetoxy-5-[3-(4-(4-dichlorobenzhydryl)-1-piperazinyl)propyl]-2,3-dihydro-2-(4-methoxyphenyl)-8-chloro-l,5-benzothiazepin-4(5H)-one]?
Answer: inhibition in vivo at 0.3 mg/kg [1]: 35%; inhibition at 1 µM (cultured cardiac cells): 14.1%; inhibition at 10 µM (cultured cardiac cells): 88%

Question: Which inhibition at 1 µM (cultured cardiac cells) does the source give for `COc1ccc([C@@H]2Sc3cc(Cl)ccc3N(CCCCN3CCN(c4ccccc4OC)CC3)C(=O)[C@@H]2OC(C)=O)cc1` [Compound I-33, (2S-cis)-3-Acetoxy-5-[4-(4-(2-methoxyphenyl)-1-piperazinyl)butyl]-2,3-dihydro-2-(4-methoxyphenyl)-8-chloro-1,5-benzothiazepin-4(5H)-one] here?
Answer: The inhibition at 1 µM was 36.9%.

Question: What about the inhibition at 10 µM (cultured cardiac cells) of the same molecule?
Answer: Its inhibition at 10 µM is 87%.

Question: With `COc1ccc([C@@H]2Sc3cc(Cl)ccc3N(CCCN3CCN(c4ccccc4)CC3)C(=O)[C@@H]2OC(C)=O)cc1` (relative stereo) [Compound I-1, 3-Acetoxy-5-[3-(4,phenyl-1-piperazinyl)propyl]-2,3-dihydro-2-(4-metoxyphenyl)-8-chloro-1,5-benzothiazepin-4(5H)-one] as the molecule, how does the inhibition at 10 µM (cultured cardiac cells) read?
Answer: Its inhibition at 10 µM is 66%.

Question: With `COc1ccc([C@@H]2Sc3cc(Cl)ccc3N(CCCN3CCN(c4cc(OC)c(OC)c(OC)c4)CC3)C(=O)[C@@H]2OC(C)=O)cc1` [Compound I-32, (2S-cis)-3-Acetoxy-5-[3-(4-(3,4,5trimethoxyphenyl) - 1-piperazinyl)propyl]-2,3-dihydro-2-(4methoxyphenyl) -8-chloro-1,5-benzothiazepin-4 (5H)-one] as the molecule, how does the inhibition at 10 µM (cultured cardiac cells) read?
Answer: The inhibition at 10 µM was 66.1%.

Question: Which results are given for `COc1ccc([C@@H]2Sc3cc(Cl)ccc3N(CCCN3CCN(Cc4ccc5c(c4)OCO5)CC3)C(=O)[C@@H]2OC(C)=O)cc1` (relative stereo) [Compound I-5]?
Answer: inhibition at 10 µM (cultured cardiac cells): 66%; IC50 (Calcium Channel): 250 nM

Question: Which inhibition in vivo at 0.3 mg/kg [1] does the source give for `COc1ccc([C@@H]2Sc3cc(Cl)ccc3N(CCCN3CCN(C(c4ccccc4)c4ccccc4)CC3)C(=O)[C@@H]2OC(C)=O)cc1` [Compound I-23, (2S-cis)-3-Acetoxy-5-[3-(4-(benzhydryl)-piperazinyl)propyl]-2,3-dihydro-2-(4-methoxyphenyl)-8-chloro-1,5-benzothiazepin-4(5H)-one] here?
Answer: Its inhibition in vivo at 0.3 mg/kg is 45%.

Question: What about the inhibition at 1 µM (cultured cardiac cells) of the same molecule?
Answer: The inhibition at 1 µM was 36.4%.

Question: And the inhibition at 10 µM (cultured cardiac cells)?
Answer: Its inhibition at 10 µM is 87%.

Question: And the “Decrease of heart rate (%)” value [2]?
Answer: The value was 12%.

Question: What about the “Antihypertensive action (%)” value [2] of the same molecule?
Answer: Its value is 16%.

Question: With `COc1ccc([C@@H]2Sc3cc(Cl)ccc3N(CCCN3CCC(c4ccccc4)(c4ccccc4)CC3)C(=O)[C@@H]2OC(C)=O)cc1` (relative stereo) [Compound I-14, 3-Acetoxy-5-[3-(4,4-diphenyl-1piperizinyl)propyl]-2,3-dihydro-2-(4-methoxyphenyl)-8-chloro-1,5-benzothiazepin-4(5H)-one] as the molecule, how does the inhibition at 10 µM (cultured cardiac cells) read?
Answer: Its inhibition at 10 µM is 83.6%.

Question: And the “Decrease of heart rate (%)” value [2]?
Answer: The value was 9.8%.

Question: What about the “Antihypertensive action (%)” value [2] of the same molecule?
Answer: Its value is 14%.

Question: What about the IC50 (Calcium Channel) of the same molecule?
Answer: The IC50 was 100 nM.

Question: Which inhibition at 1 µM (cultured cardiac cells) does the source give for `COc1ccc([C@@H]2Sc3cc(Cl)ccc3N(CCCN3CCN(c4ccccn4)CC3)C(=O)[C@@H]2OC(C)=O)cc1` (relative stereo) [Compound I-3, 3-Acetoxy-5-[3-(4-(2-piridyl)1-piperazinyl)propyl]-2,3-dihydro-2-(4-methoxyphenyl)-8-chloro-1,5-benzothiazepin-4(5H)-one] here?
Answer: Its inhibition at 1 µM is 34%.

Question: With `COc1ccc([C@@H]2Sc3cc(Cl)ccc3N(CCCN3CCN(C(=O)c4ccco4)CC3)C(=O)[C@@H]2OC(C)=O)cc1` (relative stereo) [Compound I-7, 3-Acetoxy-5-[3-(4-(2-furoyl)-1-piperazinyl)propyl]-2,3-dihydro-2-(4-methoxyphenyl)-8-chloro-1,5-benzothiazepin-4(5H)-one] as the molecule, how does the inhibition at 1 µM (cultured cardiac cells) read?
Answer: The inhibition at 1 µM was 36%.

Question: Which inhibition at 1 µM (cultured cardiac cells) does the source give for `COc1ccc([C@@H]2Sc3cc(Cl)ccc3N(CCCN3CCN(C(c4ccccc4)c4ccc(Cl)cc4)CC3)C(=O)[C@@H]2OC(C)=O)cc1` (relative stereo) [Compound I-16, 3-Acetoxy-5-[3-(4-(4-chlorobenzhydryl)-piperazinyl)propyl]-2,3-dihydro-2-(4-methoxyphenyl)-8-chloro-1,5-benzothiazepin-4(5H)-one] here?
Answer: Its inhibition at 1 µM is 18.4%.

Question: What about the inhibition at 10 µM (cultured cardiac cells) of the same molecule?
Answer: The inhibition at 10 µM was 57%.

Question: What about the “Decrease of heart rate (%)” value [2] of the same molecule?
Answer: The value was 15%.

Question: What about the “Antihypertensive action (%)” value [2] of the same molecule?
Answer: The value was 19%.

Question: What about the IC50 (Calcium Channel) of the same molecule?
Answer: Its IC50 is 240 nM.

Question: `COc1ccc([C@@H]2Sc3cc(Cl)ccc3N(CCCN3CCN(c4ccc(Cl)cc4)CC3)C(=O)[C@@H]2OC(C)=O)cc1` [Compound I-25, (2S-cis)-3-Acetoxy-5-[3-(4-(4-chlorophenyl)-1-piperazinyl)propyl]-2,3-dihydro-2-(4-methoxyphenyl)-8-chloro-l,5-benzothiazepin-4(5H)-one] was tested. Which inhibition at 1 µM (cultured cardiac cells) did it give?
Answer: Its inhibition at 1 µM is 25.2%.

Question: And the inhibition at 10 µM (cultured cardiac cells)?
Answer: Its inhibition at 10 µM is 89%.

Question: For `COc1ccc([C@@H]2Sc3cc(Cl)ccc3N(CCCCCN3CCN(c4ccccc4OC)CC3)C(=O)[C@@H]2OC(C)=O)cc1` [Compound I-34, (2S-cis)-3-Acetoxy-5-[5-(4-(2-methoxyphenyl)-1-piperazinyl)pentyl]-2,3-dihydro-2-(4-methoxyphenyl)-8-chloro-l,5-benzothiazepin-4(5H)-one], which inhibition at 10 µM (cultured cardiac cells) is on record?
Answer: The inhibition at 10 µM was 80%.

Question: Which IC50 (Calcium Channel) does the source give for `COc1ccc([C@@H]2Sc3cc(Cl)ccc3N(CCN3CCC(c4ccccc4)CC3)C(=O)[C@@H]2OC(C)=O)cc1` (relative stereo) [Compound I-11] here?
Answer: The IC50 was 200 nM.

Question: For `COc1ccc([C@@H]2Sc3cc(Cl)ccc3N(CCN3CCN(c4ccc(F)cc4)CC3)C(=O)[C@@H]2OC(C)=O)cc1` (relative stereo) [Compound I-13, 3-Acetoxy-5-[2-(4-(4-fluorophenyl)-piperazinyl)ethyl]-2,3-dihydro-2-(4-methoxyphenyl)-8-chloro-1,5-benzothiazepin-4(5H)-one], which inhibition at 1 µM (cultured cardiac cells) is on record?
Answer: The inhibition at 1 µM was 15%.

Question: What about the inhibition at 10 µM (cultured cardiac cells) of the same molecule?
Answer: The inhibition at 10 µM was 61%.

Question: `COc1ccc([C@@H]2Sc3cc(Cl)ccc3N(CCCN3CCN(c4ccc(OC)cc4)CC3)C(=O)[C@@H]2OC(C)=O)cc1` [Compound I-29, (2S-cis)-3-Acetoxy-5-[3-(4-(4methoxyphenyl) -1-piperazinyl)propyl]methoxyphenyl-8-chloro-1,5-benzothiazepin-4(5H)-one] was tested. Which inhibition at 1 µM (cultured cardiac cells) did it give?
Answer: Its inhibition at 1 µM is 30%.
